How the values were obtained:
[1] = target: T1, MAGL (Homo sapiens, UniProt Q99685); assay: In vitro competitive substrate hydrolysis enzyme activity assay (pNPA), HEK293 cell lysates; assay type: biochemical; parameters: expressed in transfected cells; host or cells: HEK293; conditions: HEK293 lysate
T1 sequence (Q99685 1-303): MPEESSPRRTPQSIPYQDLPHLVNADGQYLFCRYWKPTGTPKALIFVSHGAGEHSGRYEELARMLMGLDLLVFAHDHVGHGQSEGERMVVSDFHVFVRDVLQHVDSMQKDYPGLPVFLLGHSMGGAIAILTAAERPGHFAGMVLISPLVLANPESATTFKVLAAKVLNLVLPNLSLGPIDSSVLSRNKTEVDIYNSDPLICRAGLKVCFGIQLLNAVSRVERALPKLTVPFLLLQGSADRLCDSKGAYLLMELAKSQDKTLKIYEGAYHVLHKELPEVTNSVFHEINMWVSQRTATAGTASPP
Procedure: HEK293 cell lysates expressing recombinant human MAGL enzyme and 4-nitrophenyl acetate (pNPA) substrate were diluted separately in 50 mM HEPES (pH 7.0) containing 200 mM KCl and 1 mM EDTA. Lysates (50 μL, ˜1.2 μg total protein) were preincubated with varying concentrations of inhibitors at 25° C. After 30 min, 2×pNPA substrate (50 μL, 2.5 mM) was added and the rate of substrate turnover was monitored by measuring the increase in absorbance at wavelength 405 nm for 20 minutes at 25° C. using a Biotek Neo2 plate reader. The mean velocity was converted to percent enzyme activity following background subtraction and normalization to DMSO controls. IC50 values were determined by fitting percent enzyme activities to a non-linear regression, 4-parameter, sigmoidal dose response function in Prism GraphPad.

[2] = target: T1, MAGL; assay: In vitro competitive activity-based protein profiling, PC3 human cell membrane proteomes; assay type: biochemical; parameters: endogenous in cells; host or cells: PC3 human cells (membrane proteome); conditions: human PC3 membrane proteome; for inhibition at 1 µM: read-out: MAGL % inh. 1 μM (human PC3)
Method in brief: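 Competitive ABPP in PC3 membrane proteome (2.0 mg/mL protein): inhibitors preincubated 30 min at 37° C, then JW912-Bodipy probe added for 30 min at room temperature. MAGL band fluorescence after SDS-PAGE normalised to DMSO; IC50 from 4-parameter sigmoidal fit.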

O=C(OC(C(F)(F)F)C(F)(F)F)N1CCC2(CC1)CC2C(=O)N1CCN(C2CC2)CC1 (racemic) [Example 34, 1,1,1,3,3,3-Hexafluoropropan-2-yl (±)1-(4-cyclopropylpiperazine-1-carbonyl)-6-azaspiro[2.5]octane-6-carboxylate]
IC50 [1]: 0.148 µM
inhibition at 1 µM [2]: 100%

O=C(OC(C(F)(F)F)C(F)(F)F)N1CCC2(CC1)CC2C(=O)N1CCn2c(nnc2C2CC2)C1 (racemic) [Example 185, 1,1,1,3,3,3-hexafluoropropan-2-yl (+)1-(3-cyclopropyl-5,6,7,8-tetrahydro-[1,2,4]triazolo[4,3-a]pyrazine-7-carbonyl)-6-azaspiro[2.5]octane-6-carboxylate]
IC50 [1]: 0.862 µM
inhibition at 1 µM [2]: 90%
IC50 [2]: 0.4 µM

O=C(OC(C(F)(F)F)C(F)(F)F)N1CCC2(CC1)CC2C(=O)N1CCn2ccnc2C1 (racemic) [Example 186, 1,1,1,3,3,3-hexafluoropropan-2-yl (+)1-(5,6,7,8-tetrahydroimidazo[1,2-a]pyrazine-7-carbonyl)-6-azaspiro[2.5]octane-6-carboxylate]
IC50 [1]: 0.168 µM
inhibition at 1 µM [2]: 100%

O=C(OC(C(F)(F)F)C(F)(F)F)N1CCC2(CC1)CC2C(=O)N1CCc2cncnc2C1 (racemic) [Example 187, 1,1,1,3,3,3-hexafluoropropan-2-yl (+)1-(5,6,7,8-tetrahydropyrido[3,4-d]pyrimidine-7-carbonyl)-6-azaspiro[2.5]octane-6-carboxylate]
IC50 [1]: 0.143 µM
inhibition at 1 µM [2]: 100%
IC50 [2]: 0.11 µM

CN(C(=O)C1CC12CCN(C(=O)OC(C(F)(F)F)C(F)(F)F)CC2)c1cccnn1 (racemic) [Example 188, 1,1,1,3,3,3-hexafluoropropan-2-yl (+)1-(methyl(pyridazin-3-yl)carbamoyl)-6-azaspiro[2.5]octane-6-carboxylate]
IC50 [1]: 0.249 µM
inhibition at 1 µM [2]: 100%
IC50 [2]: 0.12 µM

O=C(Nc1cccnc1)[C@@H]1CC12CCN(C(=O)OC(C(F)(F)F)C(F)(F)F)CC2 (single isomer, unassigned) [Example 3]
IC50 [1]: 0.435 µM
inhibition at 1 µM [2]: 100%
IC50 [2]: 0.127 µM

CN(C(=O)[C@@H]1CC12CCN(C(=O)OC(C(F)(F)F)C(F)(F)F)CC2)c1cnccn1 (single isomer, unassigned) [Example 11]
IC50 [1]: 0.0993 µM
inhibition at 1 µM [2]: 100%
IC50 [2]: 0.032 µM

CN(C(=O)[C@H]1CC12CCN(C(=O)OC(C(F)(F)F)C(F)(F)F)CC2)c1cnccn1 (single isomer, unassigned) [Example 12]
IC50 [1]: 0.102 µM
inhibition at 1 µM [2]: 100%

O=C(Nc1ccnc(C(F)(F)F)n1)[C@H]1CC12CCN(C(=O)OC(C(F)(F)F)C(F)(F)F)CC2 (single isomer, unassigned) [Example 17]
IC50 [1]: 0.00421 µM
inhibition at 1 µM [2]: 100%
IC50 [2]: 0.001 µM

O=C(Nc1ccnc(C(F)(F)F)n1)[C@@H]1CC12CCN(C(=O)OC(C(F)(F)F)C(F)(F)F)CC2 (single isomer, unassigned) [Example 18]
IC50 [1]: 0.053 µM
inhibition at 1 µM [2]: 100%
IC50 [2]: 0.039 µM

O=C(Nc1cncc(F)c1)C1CC12CCN(C(=O)OC(C(F)(F)F)C(F)(F)F)CC2 (single isomer, unassigned) [Example 39, 1,1,1,3,3,3-hexafluoropropan-2-yl (R or S)-1-((5-fluoropyridin-3-yl)carbamoyl)-6-azaspiro[2.5]octane-6-carboxylate]
IC50 [1]: 0.319 µM
inhibition at 1 µM [2]: 90%
IC50 [2]: 0.29 µM

CN(C(=O)C1CC12CCN(C(=O)OC(C(F)(F)F)C(F)(F)F)CC2)c1cccnc1 (single isomer, unassigned) [Example 42, 1,1,1,3,3,3-hexafluoropropan-2-yl (R or S)-1-(methyl(pyridin-3-yl)carbamoyl)-6-azaspiro[2.5]octane-6-carboxylate]
IC50 [1]: 0.243 µM
inhibition at 1 µM [2]: 100%

CN(C(=O)C1CC12CCN(C(=O)OC(C(F)(F)F)C(F)(F)F)CC2)c1cccnc1 (single isomer, unassigned) [Example 43, 1,1,1,3,3,3-hexafluoropropan-2-yl (R or S)-1-(methyl(pyridin-3-yl)carbamoyl)-6-azaspiro[2.5]octane-6-carboxylate]
IC50 [1]: 0.244 µM
IC50 [2]: 0.04 µM

CN(C(=O)C1CC12CCN(C(=O)OC(C(F)(F)F)C(F)(F)F)CC2)c1ccccn1 (single isomer, unassigned) [Example 45, 1,1,1,3,3,3-hexafluoropropan-2-yl (R or S)-1-(methyl(pyridin-2-yl)carbamoyl)-6-azaspiro[2.5]octane-6-carboxylate]
IC50 [1]: 0.06 µM
inhibition at 1 µM [2]: 100%
IC50 [2]: 0.014 µM

O=C(Nc1ccccn1)C1CC12CCN(C(=O)OC(C(F)(F)F)C(F)(F)F)CC2 (single isomer, unassigned) [Example 48, 1,1,1,3,3,3-hexafluoropropan-2-yl (R or S)-1-(pyridin-2-ylcarbamoyl)-6-azaspiro[2.5]octane-6-carboxylate]
IC50 [1]: 0.139 µM
inhibition at 1 µM [2]: 100%

O=C(OC(C(F)(F)F)C(F)(F)F)N1CCC2(CC1)CC2C(=O)N1CCn2cc(C(F)(F)F)nc2C1 (single isomer, unassigned) [Example 51, 1,1,1,3,3,3-hexafluoropropan-2-yl (R or S)-1-(2-(trifluoromethyl)-5,6,7,8-tetrahydroimidazo[1,2-a]pyrazine-7-carbonyl)-6-azaspiro[2.5]octane-6-carboxylate]
IC50 [1]: 0.0232 µM
inhibition at 1 µM [2]: 100%
IC50 [2]: 0.0048 µM

O=C(Nc1cnccn1)C1CC12CCN(C(=O)OC(C(F)(F)F)C(F)(F)F)CC2 (single isomer, unassigned) [Example 54, 1,1,1,3,3,3-hexafluoropropan-2-yl (R or S)-1-(pyrazin-2-ylcarbamoyl)-6-azaspiro[2.5]octane-6-carboxylate]
IC50 [1]: 0.111 µM
inhibition at 1 µM [2]: 100%

O=C(OC(C(F)(F)F)C(F)(F)F)N1CCC2(CC1)CC2C(=O)N1CCc2cnc(C(F)(F)F)nc2C1 (single isomer, unassigned) [Example 57, 1,1,1,3,3,3-hexafluoropropan-2-yl (R or S)-1-(2-(trifluoromethyl)-5,6,7,8-tetrahydropyrido[3,4-d]pyrimidine-7-carbonyl)-6-azaspiro[2.5]octane-6-carboxylate]
IC50 [1]: 0.00473 µM
inhibition at 1 µM [2]: 100%
IC50 [2]: 0.0017 µM

O=C(OC(C(F)(F)F)C(F)(F)F)N1CCC2(CC1)CC2C(=O)N1CCc2cnc(C(F)(F)F)nc2C1 (single isomer, unassigned) [Example 58, 1,1,1,3,3,3-hexafluoropropan-2-yl (R or S)-1-(2-(trifluoromethyl)-5,6,7,8-tetrahydropyrido[3,4-d]pyrimidine-7-carbonyl)-6-azaspiro[2.5]octane-6-carboxylate]
IC50 [1]: 0.138 µM
IC50 [2]: 0.049 µM

O=C(Nc1cnc(C(F)(F)F)nc1)C1CC12CCN(C(=O)OC(C(F)(F)F)C(F)(F)F)CC2 (single isomer, unassigned) [Example 100, 1,1,1,3,3,3-hexafluoropropan-2-yl (R or S)-1-((2-(trifluoromethyl)pyrimidin-5-yl)carbamoyl)-6-azaspiro[2.5]octane-6-carboxylate]
IC50 [1]: 0.736 µM
